Assay results reported in patent US20230373934A1, “ANDROGEN RECEPTOR MODULATORS AND METHODS FOR THEIR USE” (ESSA Pharma, Inc., priority 2022, published 2023).
pIC50: −log10 of the molar value.

Target: T1, androgen receptor (AR) (Homo sapiens, UniProt P10275)
T1 sequence (P10275 1-920 T878A): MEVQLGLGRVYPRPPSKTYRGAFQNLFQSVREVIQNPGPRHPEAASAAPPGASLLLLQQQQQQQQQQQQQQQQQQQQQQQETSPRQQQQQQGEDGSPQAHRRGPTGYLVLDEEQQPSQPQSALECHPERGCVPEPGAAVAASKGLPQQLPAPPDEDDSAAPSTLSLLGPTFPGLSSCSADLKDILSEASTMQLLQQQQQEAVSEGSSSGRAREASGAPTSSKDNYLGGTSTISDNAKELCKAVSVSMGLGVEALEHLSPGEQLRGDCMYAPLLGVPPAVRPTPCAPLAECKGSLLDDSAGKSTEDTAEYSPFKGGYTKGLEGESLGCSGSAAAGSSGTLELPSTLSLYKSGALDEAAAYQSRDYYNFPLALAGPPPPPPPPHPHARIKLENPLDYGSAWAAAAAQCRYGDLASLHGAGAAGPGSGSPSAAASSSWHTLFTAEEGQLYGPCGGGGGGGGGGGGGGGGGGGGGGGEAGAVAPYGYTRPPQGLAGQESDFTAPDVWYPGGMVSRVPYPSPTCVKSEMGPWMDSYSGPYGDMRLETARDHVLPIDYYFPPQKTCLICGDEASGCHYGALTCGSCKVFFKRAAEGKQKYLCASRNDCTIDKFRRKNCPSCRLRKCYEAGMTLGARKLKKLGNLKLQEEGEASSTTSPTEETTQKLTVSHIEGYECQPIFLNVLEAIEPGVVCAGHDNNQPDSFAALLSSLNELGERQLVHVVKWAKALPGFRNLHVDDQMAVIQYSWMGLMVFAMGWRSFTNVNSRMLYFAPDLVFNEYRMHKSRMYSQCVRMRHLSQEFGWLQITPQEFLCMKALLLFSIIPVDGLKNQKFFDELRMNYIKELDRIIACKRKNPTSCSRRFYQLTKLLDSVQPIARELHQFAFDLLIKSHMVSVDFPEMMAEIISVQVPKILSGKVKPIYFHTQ
Test: Androgen-induced PSA-luciferase assay, Luciferase Assay B (cells stably expressing ARR2PB or PSA-firefly luciferase reporter, 384-well)
Format: cell-based
Details: Luciferase Assay B (Compounds A186-A219 and A221-A245); stable luciferase reporter cells, 1 h pretreatment, R1881 24 h, serum-free; read-out: PSA-Luc IC50 Range
Method: Luciferase Assay B: Cells stably expressing probasin promoter (ARR2PB) or human prostate-specific antigen (PSA)-firefly luciferase reporter were plated in poly-D-lysine-coated 384-well plates. 48 h after plating, cells were pretreated with vehicle or compounds for 1 h before adding R1881 under serum-free and phenol red-free conditions and then further incubated for 24 h. R1881 was added only for LNCaP cells. Firefly luciferase activities were determined by EnVision plate reader (Perkinemer) using the Steady-Glo Luciferase Reporter Assay System (Promega). Values were normalized to protein content. GraphPad Prism graphing software was used to calculate IC50 values. Luciferase Assay B was run for Compounds A186-A219 and A221-A245 in Table 2.
Statistical analyses were performed using GraphPad Prism (Version 6.01 for Windows; La Jolla, CA, USA). Comparisons between treatment and control groups were compared using Two-Way ANOVA with post-hoc Dunnett's and Tukey's tests. Differences were considered statistically significant at P values less than 0.05.

SMILES	pIC50
CC(C)(c1ccc(OCc2ccnc(N3CCOCC3)n2)cc1)c1cc(Cl)c(OC2CC2)c(C#N)c1 [Compound A201, 3-chloro-2-cyclopropoxy-5-(2-(4-((2-morpholinopyrimidin-4-yl)methoxy)phenyl)propan-2-yl)benzonitrile]	5.70 to 6.30
N#Cc1cc(Oc2ccc(-c3ccc4nc(N5CCOCC5)cnc4c3)cc2)cc(Cl)c1OC1CC1 [Compound A204]	< 5.70
N#Cc1cc(Oc2ccc(-c3ccc4nc(N5CCS(=O)(=O)CC5)cnc4c3)cc2)cc(Cl)c1OC1CC1 [Compound A206]	5.70 to 6.30
CS(=O)(=O)NCc1cnc2cc(-c3ccc(Oc4cc(Cl)c(OC5CC5)c(C#N)c4)cc3)ccc2n1 [Compound A207, N-((6-(4-(3-chloro-5-cyano-4-cyclopropoxyphenoxy)phenyl)quinoxalin-2-yl)methyl)methanesulfonamide]	5.70 to 6.30
Cn1nc(NS(C)(=O)=O)c2ccc(-c3ccc(Oc4cc(Cl)c(OC5CC5)c(C#N)c4)cc3)cc21 [Compound A209]	< 5.70
Cn1nc(NS(C)(=O)=O)c2cc(-c3ccc(Oc4cc(Cl)c(OC5CC5)c(C#N)c4)cc3)ccc21 [Compound A210]	5.70 to 6.30
CS(=O)(=O)Nc1cc(=O)n2cc(-c3ccc(Oc4cc(Cl)c(OC5CC5)c(C#N)c4)cc3)ccc2n1 [Compound A211]	< 5.70
CS(=O)(=O)NCc1ccc(-c2ccc(Oc3cc(Cl)c(OC4CC4)c(C#N)c3)cc2)cn1 [Compound A212]	5.70 to 6.30
CS(=O)(=O)NCc1cnc(-c2ccc(Oc3cc(Cl)c(OC4CC4)c(C#N)c3)cc2)cn1 [Compound A213]	5.70 to 6.30
CS(=O)(=O)NCc1ccc(-c2ccc(Oc3cc(Cl)c(OC4CC4)c(C#N)c3)cc2)nn1 [Compound A214]	5.70 to 6.30
N#Cc1cc(Oc2ccc(-c3ccc4nc(NC5CCS(=O)(=O)CC5)cnc4c3)cc2)cc(Cl)c1OC1CC1 [Compound A215]	5.70 to 6.30
N#Cc1cc(Oc2ccc(-c3ccc4nc(NC5CS(=O)(=O)C5)cnc4c3)cc2)cc(Cl)c1OC1CC1 [Compound A216]	< 5.70
CS(=O)(=O)Nc1cnc2cc(-c3ccc(Oc4cnc(OC5CC5)c(C#N)c4)cc3)ccc2n1 [Compound A217]	< 5.70
CS(=O)(=O)Nc1cnc2cc(-c3ccc(Oc4cnc(OC5CC5)c(Cl)c4)cc3)ccc2n1 [Compound A218]	5.70 to 6.30
CS(=O)(=O)Nc1ccc2nc(-c3ccc(Oc4cc(Cl)c(OC5CC5)c(C#N)c4)cc3)cnc2n1 [Compound A219]	5.70 to 6.30
CS(=O)(=O)NCc1nccc(COc2ccc(N(CC(F)(F)F)c3cc(Cl)c(OC4CC4)c(C#N)c3)cc2)n1 [Compound A221]	> 6.30
CS(=O)(=O)Nc1cnc2cc(-c3ccc(N(CC(F)F)c4cc(Cl)c(OC5CC5)c(C#N)c4)cc3)ccc2n1 [Compound A222]	> 6.30
CS(=O)(=O)Nc1nccc(COc2ccc(N(CC(F)(F)F)c3cc(Cl)c(N4CCOCC4)c(C#N)c3)cc2)n1 [Compound A223]	> 6.30
CS(=O)(=O)Nc1cnc2cc(-c3ccc(N(CC(F)(F)F)c4cc(Cl)c(N5CCOCC5)c(C#N)c4)cc3)ccc2n1 [Compound A224, N-(6-(4-((3-chloro-5-cyano-4-morpholinophenyl)(2,2,2-trifluoroethyl)amino)phenyl)quinoxalin-2-yl)methanesulfonamide]	> 6.30
CS(=O)(=O)Nc1cc2cnn(Cc3ccc(Oc4cc(Cl)c(OC5CC5)c(C#N)c4)cc3)c2cn1 [Compound A225]	5.70 to 6.30

SMILES	pIC50
CS(=O)(=O)Nc1cnc2cc(-c3ccc(Nc4cc(Cl)c(OC5CC5)c(C#N)c4)cc3)ccc2n1 [Compound A226]	5.70 to 6.30
CS(=O)(=O)Nc1cc2cn(Cc3ccc(Oc4cc(Cl)c(OC5CC5)c(C#N)c4)cc3)nc2cn1 [Compound A227]	5.70 to 6.30
CS(=O)(=O)NC12CC(COc3ccc(Oc4cc(Cl)c(OC5CC5)c(C#N)c4)cc3)(C1)C2 [Compound A228, N-(3-((4-(3-chloro-5-cyano-4-cyclopropoxyphenoxy)phenoxy)methyl)bicyclo[1.1.1]pentan-1-yl)methanesulfonamide]	< 5.70
CS(=O)(=O)Nc1cncc(N2CCN(c3ccc(Oc4cc(Cl)c(OC5CC5)c(C#N)c4)cc3)CC2)n1 [Compound A229]	< 5.70
CS(=O)(=O)Nc1nccc(N2CCN(c3ccc(Oc4cc(Cl)c(OC5CC5)c(C#N)c4)cc3)CC2)n1 [Compound A230]	> 6.30
CS(=O)(=O)Nc1cc2n(n1)CCN(c1ccc(Oc3cc(Cl)c(OC4CC4)c(C#N)c3)cc1)C2 [Compound A231]	< 5.70
CS(=O)(=O)Nc1cncc(N2CC(c3ccc(Oc4cc(Cl)c(OC5CC5)c(C#N)c4)cc3)C2)n1 [Compound A232]	5.70 to 6.30
CS(=O)(=O)Nc1cnc2cc(-c3ccc(N(CC(F)(F)F)c4cnc(N5CCOCC5)c(C#N)c4)cc3)ccc2n1 [Compound A233]	5.70 to 6.30
CS(=O)(=O)NC12CC(COc3ccc(N(CC(F)(F)F)c4cnc(OC5CC5)c(C#N)c4)cc3)(C1)C2 [Compound A234]	5.70 to 6.30
CS(=O)(=O)NC12CC(COc3ccc(N(CC(F)(F)F)c4cnc(NC5CC5)c(C#N)c4)cc3)(C1)C2 [Compound A235]	< 5.70
CS(=O)(=O)NC12CC(COc3ccc(N(CC(F)(F)F)c4cc(Cl)c(OC5CC5)c(C#N)c4)cc3)(C1)C2 [Compound A236, N-(3-((4-((3-chloro-5-cyano-4-cyclopropoxyphenyl)(2,2,2-trifluoroethyl)amino)phenoxy)methyl)bicyclo[1.1.1]pentan-1-yl)methanesulfonamide]	> 6.30
CN(c1ccc(OCc2ccnc(NS(C)(=O)=O)n2)cc1)c1cc(Cl)c(OC2CC2)c(C#N)c1 [Compound A237]	5.70 to 6.30
CS(=O)(=O)Nc1nccc(COc2ccc(N(CC(F)(F)F)c3cc(Cl)c(OCCCl)c(C#N)c3)cc2)n1 [Compound A238]	> 6.30
CN(c1cnc2cc(-c3ccc(N(CC(F)(F)F)c4cnc(OC5CC5)c(C#N)c4)cc3)ccc2n1)S(C)(=O)=O [Compound A239]	> 6.30
N#Cc1cc(Oc2ccc(-c3ccc4nc(N5CCNCC5)cnc4c3)cc2)cc(Cl)c1OC1CC1 [Compound A240]	< 5.70
N#Cc1cc(Oc2ccc(-c3ccc4nc(N5CCNCC5)ncc4c3)cc2)cc(Cl)c1OC1CC1 [Compound A241]	< 5.70
CC(=O)N1CCN(c2cnc3cc(-c4ccc(Oc5cc(Cl)c(OC6CC6)c(C#N)c5)cc4)ccc3n2)CC1 [Compound A242]	5.70 to 6.30
CC(C)(c1ccc(OCc2ccnc(N3CCNCC3)n2)cc1)c1cc(Cl)c(OC2CC2)c(C#N)c1 [Compound A243]	5.70 to 6.30
CC(=O)N1CCN(c2nccc(COc3ccc(C(C)(C)c4cc(Cl)c(OC5CC5)c(C#N)c4)cc3)n2)CC1 [Compound A244]	> 6.30
CC(=O)N1CCN(c2nccc(COc3ccc(N(CC(F)(F)F)c4cc(Cl)c(OC5CC5)c(C#N)c4)cc3)n2)CC1 [Compound A245]	> 6.30
